Laboratory results reported in a melting point compilation (Tetko et al.; mined from patent text by program, amines drawn as free bases though some values may be those of a salt).

Point of comparison: OCCSC(=S)Nc1ccccn1, melting point 88 °C. Against it:
- COc1ccc(Nc2nc(N3CCOCC3)nc(-n3c(C(F)F)nc4c(OC)cccc43)n2)nn1 — higher, 256 to 259 °C
- ClCc1coc(-c2ccc3ccccc3c2)n1 — higher, 116 to 117 °C
- CS(=O)(=O)c1ccc(Oc2ccc([N+](=O)[O-])cc2[N+](=O)[O-])cc1 — higher, 176 to 177 °C
- O=S(=O)(c1ccc(Cl)cc1)C(Cc1ccccn1)c1cc(F)ccc1F (stereo unspecified) — higher, 105 to 107 °C
- CCOC(=O)C(O)=CC=C(C#N)c1ccccc1 — higher, 189 °C
- COc1ccc(CS[C@@H]2C[C@@H](CN=[N+]=[N-])N(S(=O)(=O)c3ccc4ccccc4c3)C2)cc1 — higher, 143 °C
- CCCCc1nc2c(N)nc3ccccc3c2n1CCOCc1ccccc1 — higher, 133 to 135 °C
- CN1CC(CN)Oc2c(-c3ccccc3C(F)(F)F)cccc21 (stereo unspecified) — higher, 90 °C
- O=C(O)/C=C/c1ccc(Oc2c(-c3ccccc3)c(C(F)(F)F)cc3ccccc23)cc1 — higher, 210 to 211 °C
- COC(=O)COc1ccc([C@H]2c3ccc(OCc4ccccc4)cc3OC[C@H]2c2ccccc2)cc1 (racemic) — higher, 143 to 144 °C
- CC(C)c1ccc(N(Cc2ccc(N(C)C)cc2)C(=O)C2CCS(=O)(=O)c3ccccc32)cc1 (stereo unspecified) — higher, 185 to 187 °C
- CCCc1c(OCCCOc2ccc3c(c2CCC)OC(C(=O)O)CC3)ccc(C(C)=O)c1O (stereo unspecified) — higher, 108 to 109 °C
- O=C1CCC(N2Cc3cc(CNC(=O)Nc4ccc(Cl)c(-c5nc6ccccc6[nH]5)c4)ccc3C2=O)C(=O)N1 (stereo unspecified) — higher, 275 to 277 °C
- CCOCc1nc2c(N)nc3cc(N4CCOC4=O)ccc3c2n1CCCOC(C)C — higher, 166 to 167 °C
- CC(C)(CC12CC3CC(CC(C3)C1)C2)NC=O — not separable, 87 to 88 °C
- COc1c(O)cc(O)c2c(=O)cc(-c3ccccc3)oc12 — higher, 202 to 203 °C
- Cc1ccc(C)n1-c1cc(F)c(C2=CCSCC2)c(F)c1 — higher, 118 to 119 °C
- Fc1ccc(-c2cc(Cl)c3cc(Cl)ccc3n2)cc1 — higher, 150 to 156 °C
- CCN(CC)S(=O)(=O)c1ccc(Oc2ccc([N+](=O)[O-])cc2C#N)cc1 — higher, 163 to 164 °C
- O=S(=O)(Cc1n[nH]c(-c2cccs2)n1)c1ccccc1 — higher, 191 to 193 °C
- CN1CCC(c2c[nH]c3ccc(CCS(N)(=O)=O)cc23)CC1 — higher, > 95 °C
- Cc1cc(NC(=O)NC(=O)c2ccccc2Cl)cc(C)c1Oc1ccc(Cl)c2c1CCCC2 — higher, 224 to 226 °C
- N#Cc1ccc(OCCCCN2C(=O)c3ccccc3C2=O)cc1 — higher, 129 to 130 °C
- COc1cc(C(N)=O)c([N+](=O)[O-])cc1OCc1ccccc1 — higher, 222 to 224 °C
- CC(=O)c1ccc(OCc2cccc([N+](=O)[O-])c2)cc1O — higher, 117 to 118 °C
- OCCCNCc1cc(C(F)(F)F)cc(C(F)(F)F)c1 — lower, 57 to 58 °C
- COC[C@H](C)NC(=O)c1c[nH]c2ncc(-c3nn(C)c4cc(F)c(F)cc34)nc12 — higher, 295 to 297 °C
- O=C1C(CCO)Oc2cc([N+](=O)[O-])ccc2N1Cc1cccc(Cl)c1 (stereo unspecified) — higher, 100 to 102 °C
- CNc1nc(C)c(-c2ccnc(Nc3cccc(CNC(C)=O)c3)n2)s1 — higher, 253 to 255 °C
- CCc1nn(C(=O)NS(=O)(=O)c2ccccc2C(=O)OC)c(=O)n1C — higher, 131 °C
- Cc1nc(N2CCN(Cc3ccc(C(F)F)o3)C2=O)sc1C(=O)NCc1cccnc1 — higher, 142 to 143 °C
- O=C1CN2C(=O)C(c3ccccc3)(c3ccccc3)c3cccc(c32)N1 — higher, 235 to 255 °C
- Cc1nc(N2C[C@H](C)N(Cc3ccc(F)cc3)C2=O)sc1C(=O)NCc1ccc(F)c(F)c1 — lower, 62 to 65 °C
- COc1cc2c(cc1OC)C(=O)C(c1ccc(F)cc1)C2 (stereo unspecified) — higher, 189 to 191 °C
- Cc1nnc(-c2ccc3occ(-c4ccc(C#N)cc4)c3c2)o1 — higher, 201 to 202 °C
- CCC(C(=O)OC)(C(=O)OC)C(Cc1cc(Cl)ccc1[N+](=O)[O-])c1ccc(OC)cc1 (stereo unspecified) — higher, 95.5 to 97 °C
- CCCn1nc2c(N)nc3ccccc3c2c1CCCc1cc(-c2ccccc2)on1 — higher, 172 to 173 °C
- COc1ccc2c(c1)C(=O)c1cc(-c3nnn[nH]3)ccc1C2=O — higher, 265 to 266 °C
- Cc1nn(-c2cccnc2)cc1C(=O)O — higher, 200 to 210 °C
- COc1cc(-c2ccc(C#N)cc2)oc1-c1ccc(C#N)cc1 — higher, 257 to 258 °C
- BrCC(Br)c1ccc(C(Br)CBr)cc1 (stereo unspecified) — higher, 155 to 157 °C
- Nc1nc(N)c(Br)c(OCc2ccccc2)n1 — higher, 165 to 166 °C
- COC1Cn2ccc(=O)c(OCc3ccccc3)c2C(c2ccccc2)O1 (stereo unspecified) — higher, 202 to 204 °C
- COc1ccc(-c2[nH]nc3c2C(=O)c2c(NC(=O)NNC(=O)CCCc4ccccc4)cccc2-3)cc1 — higher, 269 °C
- OC1CCN(Cc2nc(-c3ccc4c(c3)Nc3ccccc3S4)cs2)CC1 — higher, 205 to 207 °C
- COc1ccc(CCN(CCC2CCCCC2)C(=O)CCCCC(N)=O)cc1OC — higher, 158 to 160 °C
- NC(=O)C(F)(F)Cc1c[nH]c([N+](=O)[O-])n1 — higher, 150 to 152 °C
- O=C(O)Cc1cccc(F)c1OCCCc1cn(-c2ccc(C(F)(F)F)cn2)nc1C1CCCCC1 — higher, 149 to 150 °C
- CCCC1NCCc2ccc(NC(=N)c3cccs3)cc21 (stereo unspecified) — higher, 127 to 128 °C
- COc1cccc2c1cc(C(=O)OCc1ccccc1)n2CC(=O)OC(C)(C)C — higher, 96 to 98 °C
- COC(=O)c1cc(NC(C)=O)cc(NC(C)=O)c1 — higher, 220 to 221 °C
- COc1cc(OC)c2c(=O)[nH]c(-c3ccc(OCCNC(C)C)c(-c4ccc(C(=O)N(C)C)cc4)n3)nc2c1 — higher, 214 to 215 °C
- CCOC(=O)C1Oc2cccnc2NC1=O (stereo unspecified) — higher, 160 to 162 °C
- COC=C(C(=O)OC)c1ccccc1CC(=O)c1ccccc1 — higher, 97 to 99 °C
- CNc1ccc2cnc(C(=O)c3ccc([N+](=O)[O-])c(C(=O)OC)c3)n2c1 — higher, 183 °C
- O=C1C(=Cc2ccc(Cl)cc2)N2CCC1CC2 — higher, 108 to 110 °C
- CC(C)(C)[Si](n1cc(Br)c2ncccc21)(C(C)(C)C)C(C)(C)C — lower, 79 to 80 °C
- CC/C=C\C=C/CCCCCCCCCC=O — lower, 7 to 8 °C
- Cn1nc(N)nc1NCCCCOc1cccc(CN2CCCCC2)c1 — lower, 82 to 82.5 °C
- O=C1CC[C@]2(O)C[C@H]1OC2=O — higher, 144 to 145 °C
- Nc1nc(N)c2cc(C=Cc3ccc(C(=O)O)cc3)cnc2n1 — higher, > 300 °C
- Nc1cccc(N)c1Cl — lower, 82 to 83.5 °C
- CC(=O)SCC(Cc1ccccc1)C(=O)Nc1cccc(C(=O)OCCOc2ccccc2)c1 (stereo unspecified) — higher, 90 to 92 °C
- Cc1cn(C)c(C(=O)NS(=O)(=O)c2ccccc2Cl)n1 — higher, 230 to 231 °C
- O=C1CCC(N2C(=O)c3cccc(NCc4ccco4)c3C2=O)C(=O)N1 (stereo unspecified) — higher, 171 to 173 °C
- O=C(CC(F)(F)F)Nc1c(C(=O)c2ccccc2)[nH]c2cc(Cl)ccc12 — higher, 201 to 204 °C
- COc1ccc(-c2nc(SC)ncc2-c2ccc(Cl)cc2)cc1 — higher, 127 to 130 °C
- COC(=O)C1=C(O)c2cc(Cl)sc2S(=O)(=O)N1 — higher, 173 to 174 °C
- OC(Cn1cncn1)(Cn1cnc(Cc2ccc(F)cc2)n1)c1ccccc1C(F)(F)F (stereo unspecified) — higher, 100 to 103 °C
- Cc1ccccc1CNc1cccc(-c2ccnc3c(C(=O)c4cccs4)cnn23)c1 — higher, 177 to 179 °C
- Cc1noc2c1C(=O)C(CCCN1CCC(C(=O)c3ccc(F)cc3)CC1)CC2 (stereo unspecified) — lower, 81 to 83 °C
- CCNc1nc(Cl)c(C#N)c(NC(C)C)n1 — higher, 160 to 165 °C
- O=C1CCC(N2Cc3c(CNC(=O)c4ccncc4)cccc3C2=O)C(=O)N1 (stereo unspecified) — higher, 282 to 284 °C
- O=C(O)[C@@H]1C[C@H](C2CCCCC2)CN1C(=O)CP(=O)(O)CCCCc1ccccc1 — higher, 175 to 176 °C
- CS(=O)(=O)n1cc(C2CCN(S(=O)(=O)N3CCCC[C@@H]3C(=O)NO)CC2)c2cc(C#N)ccc21 — higher, 143 to 144 °C
- CC(=O)Nc1c(I)c(C(N)=O)c(I)c(C(=O)NCC(=O)O)c1I — higher, 271 to 272 °C
- CC(C)(N)c1ccc(-c2nc(Nc3ccc(F)c(Cl)c3)ncc2C#N)cc1 — higher, 237 °C
- CCCCCCOc1ccc(C=CC(C)=CC=CC(=O)O)cc1 — higher, 181 to 185 °C
- CCCCCCOC1CC(C)(C)N(c2nc(N(CCCC)C3CC(C)(C)NC(C)(C)C3)nc(N(CCCC)C3CC(C)(C)NC(C)(C)C3)n2)C(C)(C)C1 — higher, 135 to 137 °C
- COc1cc([C@H](C)O)ccc1OCCCN1CCC(c2noc3cc(F)ccc23)CC1 — higher, 138 to 139 °C
- O=C(Nc1ccc2[nH]c(C(F)(F)F)nc2c1)NC12CC3CC(CC(C3)C1)C2 — higher, 189 to 192 °C
- O=C1CC(c2cccc(-n3ccnc3)c2)=Nc2ccc(-c3ccccc3F)cc2N1 — higher, 179 to 182 °C
- COCCC(=O)N[C@H]1CC[C@H](CCN2CCN(c3ncc(C)c4c3CCO4)CC2)CC1 — higher, 164 °C
- C=CCOC(=O)[C@H](Cc1ccccc1)NC(=O)C(F)(F)F — lower, 44 to 45 °C
- CCOC(=O)c1sc(N)nc1-c1ccccc1Cl — higher, 162 to 164 °C
- CC(=O)NNC(=N)C(Cl)(Cl)Cl — higher, 130 to 132 °C
- CCOC(=O)CCC1CCC2C(C=CC3=CCCc4c3n2c2ccncc42)C1 (stereo unspecified) — higher, 112 °C
- C[C@]12CCC(=O)N[C@@H]1CCc1cc(Sc3cccc4cccnc34)ccc12 — higher, > 260 °C
- CCOc1nc(N2CCSCC2)nc(Cl)c1[N+](=O)[O-] — higher, 149 to 150 °C
- O=C(Nc1nnc(Cc2ccc(Cl)cc2)s1)c1ccc2cccnc2c1O — higher, 276 to 278 °C
- O=[N+]([O-])c1ccccc1NCC(F)(F)F — not separable, 84 to 89 °C
- CCCCCCCCNC(=O)CSc1nc(Cl)cc(Nc2cccc(C)c2C)n1 — higher, 144 to 146 °C
- COc1ccc(C2=NN(C3CCN(CC(N)=O)CC3)C(=O)CC2)cc1OC — higher, 180 to 182 °C
- CN(C)C1=NC(NC(=O)CC2CCCCC2)C(=O)N(c2ccccc2)c2ccccc21 (stereo unspecified) — higher, 264 to 266 °C
- COc1ccc(C2=NN(c3ccccn3)C(=O)CC2)cc1 — higher, > 300 °C
- CSc1csc(NC(=O)c2ccc(OC(C)=O)cc2)n1 — higher, 186 to 189 °C
- Nc1cc(Br)cc(OCCF)c1 — lower, 48.5 to 50 °C
- Nc1cccc(Nc2nccc(-c3cccnc3)n2)c1 — higher, 89 to 90 °C
- O=Cc1cc(C=O)c(C#Cc2ccccc2)cc1C#Cc1ccccc1 — higher, 170 to 172 °C
- Cc1cc(Cl)nnc1NN — higher, 191 to 192 °C
